The test system of assay [1] is TNFα production in Kupffer cells. Nature of the assay: LPS-induced TNFα production in rat Kupffer cells (ELISA). In kind it is cell-based. To be noted: LPS 10 μg/ml, AMS 0.1 to 3 mM (glycine 0.3 to 30 mM), supernatant after 4 hours, FIG. 1. As to the method: A male rat of SD strain (body weight: 200-300 g) was subjected to laparotomy under anesthetization with Nembutal, a collagenase solution was perfused from portal vein, then the liver was excised and Kupffer cells were separated by an elutriator method. The Kupffer cells were adjusted to 5×10^5 cells/ml, each 100μ/well thereof were spread on a 96-well microplate and incubation was carried out for 48 hours using E-MEM (Eagle-MEM) and 10% FCS (fetal calf serum) to conduct the experiment. LPS (lipopoly saccharide) (10 μg/ml) and aminomethanesulofonic acid (AMS) or glycine were added at the same time thereto so as to make their concentrations 0.1 to 3 mM or 0.3 to 30 mM, respectively and the amount of TNFα produced in a supernatant liquid after incubation for 4 hours was measured by an ELISA (enzyme-linked immunosorbent assay).
A general note: ELISA stands for enzyme-linked immunosorbent assay.

Assay [2] relates to male rat of SD strain. The assay can be described thus: D-galactosamine-induced necrosis of hepatocytes in rat, plasma AST and ALT. In kind it is in vivo. To be noted: AMS 1.0 g/kg oral in 0.3% CMC 1 hour before D-galactosamine 600 mg/kg i.p., plasma after 24 hours, p<0.05. As to the method:
Action of Aminomethanesulfonic Acid (AMS) to Necrosis of Hepatocytes (Method of Experiment)
A male rat of SD strain of 6 weeks age (150 g) was introduced, subjected to a preliminary breeding by giving CRF-1 (a feed manufactured by Oriental Yeast) and water for six days, fasted for one night and used for the experiment. During the fasting, a 10% aqueous solution of glucose was freely taken by the rat for preventing the lowering of blood-sugar level. D-galactosamine (600 mg/kg) adjusted to pH 6.8 was intraperitoneally administered using a 30% physiological saline solution. After 24 hours from administration of D-galactosamine, 700 μl of blood were collected from subclavian vein under anesthetization with ether and AST (aspartate aminotransferase) and ALT (alanine aminotransferase) in plasma were measured by a Fuji Dry Chem (an automated biochemical measuring apparatus for blood manufactured by Fuji Photo-Film). One hour before the administration of D-galactosamine, AMS was orally administered as a drug to be tested using a 0.3% aqueous solution of carboxymethyl cellulose (CMC).
Group 2: AMS (1.0 g/kg)/0.3% CMC n=8.

Regarding `NCS(=O)(=O)O` [aminomethanesulfonic acid], the “inhibition of the production of TNFα” value in assay [1] is “inhibited the production of TNFα in a considerably strong manner as compared with glycine”. Moreover, the “rise in ALT in the plasma” value in assay [2] (FIG. 2) is given as “significantly inhibited”. The “rise in AST in the plasma” value in assay [2] (FIG. 3) is listed as “significantly inhibited”.

(Values after US20040058993A1, “Inhibitor for the production of TNF alpha” (AJINOMOTO CO. INC., priority 2000, published 2004).)
